pIC50: −log10 of the molar value. Converted amounts (≈) assume the structure as drawn.
Experiments:
TEAD4(217-434) = TEAD4(217-434) (Homo sapiens (Human), UniProt Q15561); test: TEAD4 FRET; type: binding; conditions: depalmitoylated, biotinylated TEAD4(217-434), FAM labelled Probe A, 120 min at 25° C.
MCF7-Tead cell line = test: TEAD reporter assay; type: cell-based; conditions: MCF7-Tead cells, luciferase activity after 24 hours
[1] = test system: MCF7-Luciferase cell line; test: Control reporter (MCF7-Luciferase); type: cell-based; conditions: MCF7-Luciferase cells, luciferase activity after 24 hours
[2] = Solubility (thermodynamic, shake-flask); type: physicochemical; conditions: thermodynamic from solid; aqueous phosphate buffer (pH 7.4), 24 hours at 25° C.
Method in brief: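 Shake-flask method starting from 10 mM DMSO stocks, which are dried before use. Residue equilibrated 24 h at 25° C. in aqueous phosphate buffer, pH 7.4. Dissolved fraction separated and quantified by UPLC/MS/MS, with QC samples in each run.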

[3] = Protein binding measurements in human plasma (Hu PPB); type: in vitro ADME; conditions: equilibrium dialysis for 18 hours, fraction unbound
Protocol: The automated equilibrium dialysis assay in human plasma uses the RED (Rapid Equilibrium Dialysis) Device and sample handling. The assay generally runs over two to three days including delivery of results. After dialysis for 18 hours, plasma and buffer samples are prepared for analysis by liquid chromatography and mass spectrometry. Samples are generally tested in singlicates and quantified by LC/MSMS by using a 7-point calibration curve in plasma. The compounds are pooled together in plasma pools up to 10 compounds. Three reference compounds are used in each run, Propranolol, Metoprolol and Warfarin. Warfarin is used as a control in each pool and Propranolol and Metoprolol are placed randomly in each run. An in-house Excel macro is used for preparation of files for the robot and the mass spectrometer and is also used for the calculations of fraction unbound (fu %) in plasma.

TEAD4(217-434), sequence (Q15561 217-434): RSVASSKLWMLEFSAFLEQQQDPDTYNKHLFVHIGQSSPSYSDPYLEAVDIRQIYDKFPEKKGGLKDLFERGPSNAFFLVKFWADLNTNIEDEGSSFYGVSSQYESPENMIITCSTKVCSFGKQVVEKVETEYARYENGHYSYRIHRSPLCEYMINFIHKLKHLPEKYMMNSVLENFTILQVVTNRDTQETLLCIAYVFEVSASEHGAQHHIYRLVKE

pIC50 (TEAD4(217-434))	pIC50 (MCF7-Tead cell line)	pIC50 [1]	solubility at 24 h [2] [µM]	Hu PPB (% free) [3] [% free]	Structure (SMILES)
7.92	7.96	4.72	13.6 (≈ 5.62 µg/mL)	3.9	C=CC(=O)N1CC[C@H](Nc2ncc(-c3ccc(C(F)(F)F)cc3)c3nccnc23)C1 [Example 45, (S)-1-(3-((8-(4-(trifluoromethyl)phenyl)pyrido[3,4-b]pyrazin-5-yl)amino)pyrrolidin-1-yl)prop-2-en-1-one]
7.60	7.82	4.51	135 (≈ 62.2 µg/mL)	11.0	C=CC(=O)N1C[C@@H](CO)[C@H](Nc2nnc(-c3ccc(C(F)(F)F)cc3)c3cccc(F)c23)C1 [Example 15, 1-((3S,4R)-3-((8-fluoro-4-(4-(trifluoromethyl)phenyl)phthalazin-1-yl)amino)-4-(hydroxymethyl)pyrrolidin-1-yl)prop-2-en-1-one]
6.74	7.48	< 4.50	155 (≈ 68.7 µg/mL)	17.0	C=CC(=O)N1C[C@@H](CO)[C@H](Nc2ncc(-c3ccc(C(F)(F)F)cn3)c3ncccc23)C1 [Example 37, 1-((3R,4S)-3-(hydroxymethyl)-4-((8-(5-(trifluoromethyl)pyridin-2-yl)-1,6-naphthyridin-5-yl)amino)pyrrolidin-1-yl)prop-2-en-1-one]
7.57	7.21	< 4.50	244 (≈ 110 µg/mL)	7.7	C=C(F)C(=O)N1C[C@H](F)[C@H](Nc2nnc(-c3ccc(C(F)(F)F)cc3)c3ncccc23)C1 [Example 5, 2-fluoro-1-((3S,4R)-3-fluoro-4-((8-(4-(trifluoromethyl)phenyl)pyrido[2,3-d]pyridazin-5-yl)amino)pyrrolidin-1-yl)prop-2-en-1-one]

Source: US20240116926A1, “HETEROAROMATIC COMPOUNDS” (AstraZeneca AB, priority 2022, published 2024)
